Assay [1] addresses Phosphatidylinositol 4,5-bisphosphate 3-kinase catalytic subunit gamma isoform (Homo sapiens, UniProt P48736). In words: PI3Kγ (p110γ) Recombinant Human Protein was purchased from Life technology (Grand Island, N.Y.). […] Inhibitors were first diluted serially in DMSO and added to the plate wells before the addition of other reaction components. The final concentration of DMSO in the assay was 2%. The PI3Kγ assay was carried out at room temperature in 20 mM MOPS, pH 6.7, 10 mM MgCl2, 5 mM DTT and CHAPS 0.03%. […] The final concentration of SPA beads is 1.0 mg/mL. After the plate sealing, plates were shaken overnight at room temperature and centrifuged at 1500 rpm for 10 min, the radioactivity of the product was determined by scintillation counting on Topcount (Perkin-Elmer).

In assay [2] the target is T1, Phosphatidylinositol 4,5-bisphosphate 3-kinase catalytic subunit delta isoform (Homo sapiens, UniProt O00329).
T1 sequence (O00329 whole entry): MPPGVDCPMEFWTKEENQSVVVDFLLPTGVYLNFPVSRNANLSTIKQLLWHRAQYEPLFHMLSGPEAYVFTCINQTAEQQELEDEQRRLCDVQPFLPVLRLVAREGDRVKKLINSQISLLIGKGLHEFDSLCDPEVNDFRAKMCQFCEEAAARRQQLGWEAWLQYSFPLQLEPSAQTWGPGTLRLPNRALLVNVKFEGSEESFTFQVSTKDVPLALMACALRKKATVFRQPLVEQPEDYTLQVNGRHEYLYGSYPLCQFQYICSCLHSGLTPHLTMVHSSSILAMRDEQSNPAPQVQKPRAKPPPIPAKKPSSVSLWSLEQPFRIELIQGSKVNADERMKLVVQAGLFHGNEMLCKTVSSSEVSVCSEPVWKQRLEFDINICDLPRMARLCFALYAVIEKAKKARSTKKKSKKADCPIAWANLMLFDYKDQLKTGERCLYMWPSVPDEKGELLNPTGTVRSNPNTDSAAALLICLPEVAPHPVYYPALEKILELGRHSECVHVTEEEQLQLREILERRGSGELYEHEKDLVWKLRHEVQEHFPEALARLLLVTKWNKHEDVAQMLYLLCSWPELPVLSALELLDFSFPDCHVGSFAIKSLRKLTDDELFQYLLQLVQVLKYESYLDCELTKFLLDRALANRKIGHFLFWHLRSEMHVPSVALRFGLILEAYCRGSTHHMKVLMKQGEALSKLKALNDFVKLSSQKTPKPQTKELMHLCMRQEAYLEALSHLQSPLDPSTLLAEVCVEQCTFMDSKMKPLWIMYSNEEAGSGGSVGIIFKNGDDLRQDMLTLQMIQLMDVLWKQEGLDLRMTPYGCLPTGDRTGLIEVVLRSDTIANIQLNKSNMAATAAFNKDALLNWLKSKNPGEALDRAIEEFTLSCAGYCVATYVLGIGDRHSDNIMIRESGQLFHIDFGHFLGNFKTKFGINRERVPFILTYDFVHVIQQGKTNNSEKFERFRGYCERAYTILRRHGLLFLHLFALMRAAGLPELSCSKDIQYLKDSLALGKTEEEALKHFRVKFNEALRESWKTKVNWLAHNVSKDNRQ
In words: Scintillation Proximity Assay: PI3Kδ:[γ-33P]ATP (10 mCi/mL) and Wheat Germ Agglutinin (WGA) YSi SPA Scintillation Beads was purchased from Perkin-Elmer (Waltham, Mass.). Lipid kinase substrate, D-myo-Phosphatidylinositol 4,5-bisphosphate (PtdIns(4,5)P2)D (+)-sn-1,2-di-O-octanoylglyceryl, 3-O-phospho linked (PIP2), CAS 204858-53-7, was purchased from Echelon Biosciences (Salt Lake City, Utah). PI3Kδ (p110δ/p85α) Recombinant Human Protein was purchased from Eurofins (St Charles, Mo.). ATP, MgCl2, DTT, EDTA, MOPS and CHAPS were purchased from Sigma-Aldrich (St. Louis, Mo.).The kinase reaction was conducted in polystyrene 384-well Greiner Bio-one white plate from Thermo Fisher Scientific in a final volume of 25 μL. Inhibitors were first diluted serially in DMSO and added to the plate wells before the addition of other reaction components. The final concentration of DMSO in the assay was 2%. The PI3Kδ assay was carried out at room temperature in 20 mM MOPS, pH 6.7, 10 mM MgCl2, 5 mM DTT and CHAPS 0.03%. Reactions were initiated by the addition of ATP, the final reaction mixture consisted of 20 μM PIP2, 2 μM ATP, 0.5 μCi [γ-33P] ATP, 3.4 nM PI3Kδ. Reactions were incubated for 120 min and terminated by the addition of 40 μL SPA beads suspended in quench buffer: 163 mM potassium phosphate pH 7.8, 20% glycerol, 25 mM EDTA. The final concentration of SPA beads is 1.0 mg/mL. […]. (In general: Scintillation proximity formats need no separation of bound from free tracer.)

Phosphatidylinositol 4,5-bisphosphate 3-kinase catalytic subunit gamma isoform, sequence (P48736 whole entry, canonical isoform): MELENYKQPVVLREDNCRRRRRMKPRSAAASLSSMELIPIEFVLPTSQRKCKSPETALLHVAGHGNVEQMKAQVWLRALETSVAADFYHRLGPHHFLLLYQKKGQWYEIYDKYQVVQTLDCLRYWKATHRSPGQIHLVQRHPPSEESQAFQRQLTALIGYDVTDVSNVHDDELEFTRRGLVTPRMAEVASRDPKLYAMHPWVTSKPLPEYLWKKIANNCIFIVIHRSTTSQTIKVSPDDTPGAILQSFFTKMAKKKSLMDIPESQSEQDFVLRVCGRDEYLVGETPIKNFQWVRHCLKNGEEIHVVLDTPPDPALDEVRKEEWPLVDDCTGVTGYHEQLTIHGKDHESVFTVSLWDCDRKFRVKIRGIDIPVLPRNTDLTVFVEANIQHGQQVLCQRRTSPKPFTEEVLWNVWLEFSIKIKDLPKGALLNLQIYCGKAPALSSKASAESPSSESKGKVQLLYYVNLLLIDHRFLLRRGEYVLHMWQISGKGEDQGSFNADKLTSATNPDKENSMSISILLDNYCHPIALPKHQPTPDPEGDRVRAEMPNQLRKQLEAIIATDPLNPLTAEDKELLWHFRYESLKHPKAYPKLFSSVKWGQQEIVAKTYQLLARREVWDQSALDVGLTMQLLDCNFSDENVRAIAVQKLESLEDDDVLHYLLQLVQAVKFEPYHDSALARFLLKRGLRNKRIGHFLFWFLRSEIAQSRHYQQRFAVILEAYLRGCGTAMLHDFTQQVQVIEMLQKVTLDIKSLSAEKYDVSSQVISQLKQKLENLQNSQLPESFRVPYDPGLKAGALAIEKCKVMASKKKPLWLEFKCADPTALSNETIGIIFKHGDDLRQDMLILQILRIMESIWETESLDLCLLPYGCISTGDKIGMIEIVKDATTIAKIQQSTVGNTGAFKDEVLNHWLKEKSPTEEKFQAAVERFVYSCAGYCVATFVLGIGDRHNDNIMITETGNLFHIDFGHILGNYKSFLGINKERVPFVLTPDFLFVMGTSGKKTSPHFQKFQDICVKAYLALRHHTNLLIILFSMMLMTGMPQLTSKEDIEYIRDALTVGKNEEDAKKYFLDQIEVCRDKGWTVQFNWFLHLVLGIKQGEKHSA

Turning to `Cc1ccc(S(=O)(=O)CC2CCC2)cc1-c1cnc2c(N)ncnn12`, the IC50 in assay [1] was less than 500 nM; in assay [2] it was less than 2000 nM.

By IC50 is commonly meant the midpoint of a concentration-inhibition curve.

The record behind these values is ChEMBL document CHEMBL5727418, “Substituted imidazo[2,1-f][1,2,4]triazines, substituted imidazo[1,2-a]pyridines and substituted imidazo[1,2-b]pyridazines as PI3K-gamma inhibitors” (2019).
